According to US20250171420A1 (Monte Rosa Therapeutics, Inc., priority 2022, published 2025):
Where two headings read alike, the source gives them in different places.

Columns and labels:
GP2D cell line = experiment: Growth inhibition, CyQUANT Direct Cell Proliferation Assay, GP2D; format: cell-based
Method: (§1) SKCO1, LS180, and LS174T cell lines were purchased from ATCC. CW2 cell line was purchased from Riken. GP2D cell line was purchased from Sigma/ECACC. All cell lines were cultured in manufacturer's recommended media at 37° C., 5% CO2. Briefly, cells were suspended in 200 μL of media and seeded at 300 to 1,800 cells per well in tissue culture treated 96-well plates with black walls and clear bottom. Plates were incubated overnight and initial (To) read was performed the following day using CyQUANT Direct Cell Proliferation Assay Kit (Thermo Fisher Scientific) according to manufacturer's protocol. All compounds were solubilized in DMSO and prepared at 3-fold serial dilution, using 9 points starting at 30 μM as highest concentration, administered to cells and incubated for 120 to 168 hours, at which point CyQUANT assay measurement was performed using Acumen Cellista instrument (Ex/Em 480/520 nm). Media-only wells were used as blank, and 0.3% DMSO was used as DMSO-treated cell control. Growth inhibition (percent response) was calculated using the following formula in Excel: “=if ([Compound treated Day N]>[Untreated Day 0, AVG], ([Compound treated Day N]−[Untreated Day 0, AVG])/([Untreated Day N]−[Untreated Day 0, AVG])*100, ([Compound Treated Day N]−[Untreated Day 0, AVG])/([Untreated Day 0, AVG])*100)”. GI50 is the response corresponding to the 50% of untreated control.
(§2) GI50 data are reported in Tables 4a, 4b, 4c, 4d, and 4e for compounds in Table 1. In Tables 4a, 4b, 4c, 4d, and 4e below, According to the code, A represents a GI50 value of ≤0.1 μM, B represents a GI50 value>0.1 μM and ≤1 μM, C represents an GI50 value>1 μM.

LS180 cell line = experiment: Growth inhibition, CyQUANT Direct Cell Proliferation Assay, LS180; format: cell-based; conditions: Homo sapiens
Method: as §1, §2

CRBN/DDB1 = CRBN/DDB1 (Homo sapiens, UniProt Q96SW2); experiment: HTRF binding assay (displacement of Cy5-thalidomide probe from CRBN/DDB1); conditions: CRBN/DDB1 2.5 nM, Cy5-Thalidomide 100 nM, 30 min; geometric mean; read-out: HTRF_Thali_Disp_DR_geo_IC50
Outline: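 Compounds in a 10-point threefold dilution series were incubated 30 min at ambient temperature with 2.5 nM CRBN/DDB1, 100 nM Cy5-thalidomide probe and terbium anti-His donor (HEPES/NaCl/TCEP/EDTA/Tween20 buffer). IC50 came from 4-parameter fits of the 665/620 nm HTRF ratio; Ki used Cheng-Prusoff on geometric-mean IC50.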

CK1α = target: T1, CK1α (Homo sapiens, UniProt P48729); experiment: CK1α NanoBit Assay (HiBiT-tagged CSNK1A1, HEK293 clonal lines); format: cell-based; conditions: HEK293 HiBiT-CSNK1A1/LgBiT cells, 24 h incubation
T1 construct: HEK293 clonal lines with CRISPR KI HiBiT tag on CSNK1A1
Outline: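 HEK293 clones carrying a CRISPR knock-in HiBiT tag on CSNK1A1 and stably expressing LgBiT are treated with compound for 24 hours at 37° C, 5% CO2, then read by luminescence. Response is normalized as 100*(S−N)/(P−N) against plate negative and positive controls, and DC50 values are derived.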

LS174T cell line = experiment: Growth inhibition, CyQUANT Direct Cell Proliferation Assay, LS174T; format: cell-based; conditions: Homo sapiens
Method: as §1, §2

SKCO1 cell line = experiment: Growth inhibition, CyQUANT Direct Cell Proliferation Assay, SKCO1; format: cell-based; conditions: Homo sapiens
Method: as §1, §2

CW2 cell line = experiment: Growth inhibition, CyQUANT Direct Cell Proliferation Assay, CW2; format: cell-based; conditions: Homo sapiens
Method: as §1, §2

[1] = GP2D, 120 to 168 hours, read-out: GP2D GI50
[2] = LS180, 120 to 168 hours, read-out: LS180 GI50
[3] = 120 to 168 hours, read-out: LS174T GI50
[4] = SK-CO-1, SKCO1, 120 to 168 hours, read-out: SKCO1 GI50
[5] = CW-2, CW2, 120 to 168 hours, read-out: CW2 GI50
[6] = LS180, read-out: LS180 GI50 (μM)
[7] = SK-CO-1, read-out: SKCO1 GI50 (μM)

T1 sequence (P48729 whole entry): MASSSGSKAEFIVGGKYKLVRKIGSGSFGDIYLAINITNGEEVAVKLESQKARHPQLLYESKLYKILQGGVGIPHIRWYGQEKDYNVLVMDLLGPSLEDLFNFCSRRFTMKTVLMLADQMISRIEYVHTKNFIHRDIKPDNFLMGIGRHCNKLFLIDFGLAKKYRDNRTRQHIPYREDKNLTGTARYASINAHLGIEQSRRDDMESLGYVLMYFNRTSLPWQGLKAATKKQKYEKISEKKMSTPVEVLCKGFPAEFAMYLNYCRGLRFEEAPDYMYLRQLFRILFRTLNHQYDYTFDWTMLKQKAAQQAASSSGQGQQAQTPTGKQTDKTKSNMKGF
T1 sequence (Q96SW2 whole entry, further chain): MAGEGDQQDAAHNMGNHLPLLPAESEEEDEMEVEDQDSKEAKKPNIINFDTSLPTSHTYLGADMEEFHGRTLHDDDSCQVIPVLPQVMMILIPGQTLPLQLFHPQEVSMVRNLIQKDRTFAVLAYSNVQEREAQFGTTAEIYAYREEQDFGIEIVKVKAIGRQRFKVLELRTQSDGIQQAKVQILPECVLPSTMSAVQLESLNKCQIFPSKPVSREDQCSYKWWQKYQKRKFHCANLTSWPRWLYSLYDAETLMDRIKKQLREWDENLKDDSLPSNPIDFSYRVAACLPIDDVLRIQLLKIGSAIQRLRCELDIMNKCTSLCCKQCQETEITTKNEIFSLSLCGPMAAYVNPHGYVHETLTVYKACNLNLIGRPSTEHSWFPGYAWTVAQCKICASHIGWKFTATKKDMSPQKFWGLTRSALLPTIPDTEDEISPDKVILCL
T1 sequence (Q16531 2-1140 partner limits assumed): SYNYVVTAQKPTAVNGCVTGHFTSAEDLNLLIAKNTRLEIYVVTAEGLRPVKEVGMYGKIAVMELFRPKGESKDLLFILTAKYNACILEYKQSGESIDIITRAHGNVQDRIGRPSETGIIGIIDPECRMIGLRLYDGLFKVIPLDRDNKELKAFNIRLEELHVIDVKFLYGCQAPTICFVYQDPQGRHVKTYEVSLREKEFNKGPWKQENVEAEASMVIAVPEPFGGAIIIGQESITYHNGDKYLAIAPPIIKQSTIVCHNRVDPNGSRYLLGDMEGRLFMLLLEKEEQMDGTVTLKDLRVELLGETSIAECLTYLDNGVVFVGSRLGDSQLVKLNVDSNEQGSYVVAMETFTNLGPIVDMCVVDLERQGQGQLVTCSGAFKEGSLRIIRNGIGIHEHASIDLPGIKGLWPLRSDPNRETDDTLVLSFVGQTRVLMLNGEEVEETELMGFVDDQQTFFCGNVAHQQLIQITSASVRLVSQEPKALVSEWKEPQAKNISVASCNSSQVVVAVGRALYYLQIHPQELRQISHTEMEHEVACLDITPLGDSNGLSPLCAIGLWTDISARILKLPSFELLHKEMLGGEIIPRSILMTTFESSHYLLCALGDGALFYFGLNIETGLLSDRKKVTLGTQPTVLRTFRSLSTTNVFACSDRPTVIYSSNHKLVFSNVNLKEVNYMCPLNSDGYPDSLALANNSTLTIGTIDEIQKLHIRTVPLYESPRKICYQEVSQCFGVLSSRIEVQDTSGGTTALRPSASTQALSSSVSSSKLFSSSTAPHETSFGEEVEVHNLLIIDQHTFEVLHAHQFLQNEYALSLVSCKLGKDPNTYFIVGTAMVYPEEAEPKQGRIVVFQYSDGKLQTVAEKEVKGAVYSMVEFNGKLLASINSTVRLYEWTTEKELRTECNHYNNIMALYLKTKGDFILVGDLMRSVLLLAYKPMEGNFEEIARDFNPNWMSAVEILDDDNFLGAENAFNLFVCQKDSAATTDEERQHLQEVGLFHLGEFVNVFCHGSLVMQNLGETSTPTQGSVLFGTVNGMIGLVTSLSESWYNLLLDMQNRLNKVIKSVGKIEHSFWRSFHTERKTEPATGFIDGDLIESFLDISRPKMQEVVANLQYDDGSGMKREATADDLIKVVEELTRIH
Sequence of CRBN/DDB1 (Q96SW2 whole entry, species assumed): as the sequence (Q96SW2 whole entry, further chain) above
Sequence of CRBN/DDB1 (Q16531 whole entry partner, species assumed): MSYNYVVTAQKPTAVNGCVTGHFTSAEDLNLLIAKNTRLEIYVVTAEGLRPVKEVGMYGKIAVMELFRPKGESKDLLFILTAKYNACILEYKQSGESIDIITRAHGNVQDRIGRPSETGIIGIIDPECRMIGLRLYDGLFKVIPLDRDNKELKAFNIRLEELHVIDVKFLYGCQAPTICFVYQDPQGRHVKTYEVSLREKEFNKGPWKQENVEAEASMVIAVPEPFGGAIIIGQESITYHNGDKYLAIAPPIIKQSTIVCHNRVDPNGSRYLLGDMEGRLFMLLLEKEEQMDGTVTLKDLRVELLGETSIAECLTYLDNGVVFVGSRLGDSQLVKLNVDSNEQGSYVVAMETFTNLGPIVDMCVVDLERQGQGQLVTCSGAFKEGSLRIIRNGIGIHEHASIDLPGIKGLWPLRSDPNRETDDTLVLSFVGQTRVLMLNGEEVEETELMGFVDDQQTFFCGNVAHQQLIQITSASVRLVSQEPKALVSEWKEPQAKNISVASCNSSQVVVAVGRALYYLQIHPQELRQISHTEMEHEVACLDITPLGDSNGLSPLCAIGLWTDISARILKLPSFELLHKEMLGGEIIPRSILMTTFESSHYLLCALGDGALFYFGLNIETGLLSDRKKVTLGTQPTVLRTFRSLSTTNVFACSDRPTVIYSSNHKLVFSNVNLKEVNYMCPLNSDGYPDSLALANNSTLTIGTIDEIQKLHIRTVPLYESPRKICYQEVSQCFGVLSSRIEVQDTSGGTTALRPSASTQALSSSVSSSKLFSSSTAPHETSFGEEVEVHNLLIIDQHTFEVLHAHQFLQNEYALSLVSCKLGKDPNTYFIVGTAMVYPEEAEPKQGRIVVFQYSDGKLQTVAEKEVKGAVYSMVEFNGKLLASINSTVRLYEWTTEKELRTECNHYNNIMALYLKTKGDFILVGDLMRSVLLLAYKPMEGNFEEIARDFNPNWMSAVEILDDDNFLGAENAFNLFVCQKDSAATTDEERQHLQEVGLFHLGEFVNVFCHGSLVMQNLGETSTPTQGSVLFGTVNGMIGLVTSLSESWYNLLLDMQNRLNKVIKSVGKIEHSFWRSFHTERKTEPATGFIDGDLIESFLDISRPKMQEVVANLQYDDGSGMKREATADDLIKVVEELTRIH

SMILES | GI50 (GP2D cell line; [1]) [µM] | GI50 (LS180 cell line; [2]) [µM] | IC50 (CRBN/DDB1) [nM] | DC50 (CK1α) [µM] | GI50 (LS174T cell line; [3]) [µM] | GI50 (SKCO1 cell line; [4]) [µM] | GI50 (CW2 cell line; [5]) [µM] | GI50 (GP2D cell line; GP2d, read-out: GP2D GI50 (μM)) [µM] | GI50 (LS180 cell line; [6]) [µM] | GI50 (LS174T cell line; read-out: LS174T GI50 (μM)) [µM] | GI50 (SKCO1 cell line; [7]) [µM] | GI50 (CW2 cell line; CW-2, read-out: CW2 GI50 (μM)) [µM]
C[C@H]1Cc2ccccc2N1C(=O)Nc1ccc2c(c1)CN(C1CCC(=O)NC1=O)C2=O (stereo partly drawn) [Compound 101, (2S)—N-(2-(2,6-dioxopiperidin-3-yl)-1-oxoisoindolin-5-yl)-2-methylindoline-1-carboxamide] | < 0.1 | < 0.1 | 100 to 1000 | < 0.1 | < 0.1 | < 0.1 | < 0.1 | – | – | – | – | –
O=C1CCC(N2Cc3cc(NC(=O)N4CCc5ccccc54)ccc3C2=O)C(=O)N1 (stereo not drawn) [Compound 103, N-(2-(2,6-dioxopiperidin-3-yl)-1-oxoisoindolin-5-yl)indoline-1-carboxamide] | < 0.1 | 0.1 to 1 | 100 to 1000 | < 0.1 | 0.1 to 1 | < 0.1 | 0.1 to 1 | – | – | – | – | –
O=C1CCC(N2Cc3cc(NC(=O)N4Cc5ccccc5C4)ccc3C2=O)C(=O)N1 (stereo not drawn) [Compound 106, N-(2-(2,6-dioxopiperidin-3-yl)-1-oxoisoindolin-5-yl)isoindoline-2-carboxamide] | 0.1 to 1 | > 1 | 100 to 1000 | < 0.1 | > 1 | 0.1 to 1 | 0.1 to 1 | – | – | – | – | –
CC1(C)CN(C(=O)Nc2ccc3c(c2)CN(C2CCC(=O)NC2=O)C3=O)c2ccccc21 (stereo not drawn) [Compound 124, N-(2-(2,6-dioxopiperidin-3-yl)-1-oxoisoindolin-5-yl)-3,3-dimethylindoline-1-carboxamide] | – | – | 100 to 1000 | < 0.1 | – | – | – | < 0.1 | 0.1 to 1 | < 0.1 | < 0.1 | < 0.1
O=C1CCC(N2Cc3cc(NC(=O)N4CCc5c4cccc5C(F)(F)F)ccc3C2=O)C(=O)N1 (stereo not drawn) [Compound 135, N-(2-(2,6-dioxopiperidin-3-yl)-1-oxoisoindolin-5-yl)-4-(trifluoromethyl)indoline-1-carboxamide] | – | – | 100 to 1000 | < 0.1 | – | – | – | < 0.1 | 0.1 to 1 | 0.1 to 1 | < 0.1 | < 0.1
O=C1CCC(N2Cc3cc(NC(=O)N4CCc5ccc(Cl)cc54)ccc3C2=O)C(=O)N1 (stereo not drawn) [Compound 137, 6-chloro-N-(2-(2,6-dioxopiperidin-3-yl)-1-oxoisoindolin-5-yl)indoline-1-carboxamide] | – | – | 100 to 1000 | < 0.1 | – | – | – | 0.1 to 1 | 0.1 to 1 | 0.1 to 1 | 0.1 to 1 | < 0.1
N#Cc1ccc2c(c1)CCN2C(=O)Nc1ccc2c(c1)CN(C1CCC(=O)NC1=O)C2=O (stereo not drawn) [Compound 142, 5-cyano-N-(2-(2,6-dioxopiperidin-3-yl)-1-oxoisoindolin-5-yl)indoline-1-carboxamide] | – | – | 100 to 1000 | < 0.1 | – | – | – | 0.1 to 1 | 0.1 to 1 | 0.1 to 1 | 0.1 to 1 | > 1
N#Cc1cccc2c1CCN2C(=O)Nc1ccc2c(c1)CN(C1CCC(=O)NC1=O)C2=O (stereo not drawn) [Compound 148, 4-cyano-N-(2-(2,6-dioxopiperidin-3-yl)-1-oxoisoindolin-5-yl)indoline-1-carboxamide] | 0.1 to 1 | 0.1 to 1 | < 100 | < 0.1 | 0.1 to 1 | 0.1 to 1 | 0.1 to 1 | – | – | – | – | –
O=C1CCC(N2Cc3cc(NC(=O)N4CCc5c(C6CC6)cccc54)ccc3C2=O)C(=O)N1 (stereo not drawn) [Compound 164, 4-cyclopropyl-N-(2-(2,6-dioxopiperidin-3-yl)-1-oxoisoindolin-5-yl)indoline-1-carboxamide] | < 0.1 | 0.1 to 1 | 100 to 1000 | < 0.1 | < 0.1 | < 0.1 | < 0.1 | – | – | – | – | –
